Earlier results on 2 molecules are cited in patent US20120309847A1, “DOSING REGIMENS AND METHODS FOR TREATING OR PREVENTING PROMYELOCYTIC LEUKEMIA” (NBI Pharmaceuticals, Inc., priority 2011, published 2012).

The structures appear in SMILES notation.

Data set [1] has as its system APL. The note with it: ATRA combined with anthracycline based chemotherapy; cited from earlier work.
Data set [2] deals with APL. The note with it: enocitabine 100-200 mg/m^2 continuous infusion 7 days combined with daunorubicin i.v. 3 days; cited from earlier work.

Turning to `CC1=C(/C=C/C(C)=C/C=C/C(C)=C/C(=O)O)C(C)(C)CCC1` [ATRA, all-trans retinoic acid], in the data set with APL [1], the “clinical remission, share of patients” value is “approximately 90%”.
Consider `CCCCCCCCCCCCCCCCCCCCCC(=O)Nc1ccn([C@@H]2O[C@H](CO)[C@@H](O)[C@@H]2O)c(=O)n1` [enocitabine], for which the long-term disease-free survival in the data set with APL [2] is about 30%.
